According to patent US20230085307A1, “PYRIDAZINONE COMPOUND AND HERBICIDE” (NISSAN CHEMICAL CORPORATION, priority 2019, published 2023):

Columns and labels:
lambsquarters = assay: Test Example 5: herbicidal effect by foliage application, plastic box (Table 20, symbol O); type: in vivo, lambsquarters (Chenopodium album); details: foliage application, three weeks after application
In short: (§1)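 Plants were sown into sterilized diluvial soil under about 1.5 cm cover and kept in a greenhouse at 25° C. to 30° C. Fourteen days on, foliage received an even spray of the diluted emulsion. Herbicidal or crop effect was judged three weeks afterwards.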

redroot pigweed = assay: Test Example 4: herbicidal effect by soil treatment (Table 19, symbol N); type: in vivo, redroot pigweed (Amaranthus retroflexus)
In short: (§2)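 Pre-emergence style soil spray: seeds under ~1.5 cm sterilized diluvial soil received a uniform coat of emulsion diluted to the predetermined herbicide amount. Greenhouse 25–30° C; readout at week three on previously defined criteria.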

windgrass [1] = assay: Test Example 4: herbicidal effect by soil treatment (Table 19, symbol L); type: in vivo, windgrass (Apera spica-venti)
In short: as §2

windgrass [2] = assay: Test Example 5: herbicidal effect by foliage application, plastic box (Table 20, symbol L); type: in vivo, windgrass (Apera spica-venti); details: foliage application, three weeks after application
In short: as §1

barnyard grass [3] = assay: Test Example 3: herbicidal effect by foliage application, Wagner pot (Table 18, symbol H); type: in vivo, barnyard grass (Echinochloa crus-galli)
In short: (§3)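 Plants were sown in alluvial soil held under 0.1–0.5 cm standing water and grown 14 days in a greenhouse at 25–30 °C. An emulsifiable formulation, water-diluted to the set dose, was then sprayed onto the foliage, and effects were scored three weeks later using previously defined criteria.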

velvetleaf = assay: Test Example 4: herbicidal effect by soil treatment (Table 19, symbol M); type: in vivo, velvetleaf (Abutilon theophrasti)
In short: as §2

Chinese sprangletop = assay: Test Example 3: herbicidal effect by foliage application, Wagner pot (Table 18, symbol D); type: in vivo, chinese sprangletop (Leptochloa chinensis)
In short: as §3

persian speedwell = assay: Test Example 5: herbicidal effect by foliage application, plastic box (Table 20, symbol R); type: in vivo, Persian speedwell (Veronica persica); details: foliage application, three weeks after application
In short: as §1

barnyard grass [4] = assay: Test Example 4: herbicidal effect by soil treatment (Table 19, symbol H); type: in vivo, barnyard grass (Echinochloa crus-galli)
In short: as §2

green foxtail [5] = assay: Test Example 5: herbicidal effect by foliage application, plastic box (Table 20, symbol G); type: in vivo, green foxtail (Setaria viridis); details: foliage application, three weeks after application
In short: as §1

oval-leafed pondweed = assay: Test Example 1: herbicidal activity, application before weed generation under submerged conditions (Table 16, symbol C); type: in vivo, oval-leafed pondweed (Monochoria vaginalis)
In short: (§4)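 Submerged Wagner pots (alluvial soil, 4 cm water) sown with weed seeds and planted with 2.5-leaf rice seedlings; emulsifiable concentrate diluted in water applied to water surface on sowing day. Held in greenhouse at 25-30 °C; injury scored 0-5 by herbicidal rate after three weeks.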

Japanese bulrush = assay: Test Example 1: herbicidal activity, application before weed generation under submerged conditions (Table 16, symbol B); type: in vivo, Japanese bulrush (Schoenoplectus juncoides)
In short: as §4

green foxtail [6] = assay: Test Example 4: herbicidal effect by soil treatment (Table 19, symbol G); type: in vivo, green foxtail (Setaria viridis)
In short: as §2

wild oat = assay: Test Example 5: herbicidal effect by foliage application, plastic box (Table 20, symbol I); type: in vivo, wild oat (Avena fatua); details: foliage application, three weeks after application
In short: as §1

rice flat sedge = assay: Test Example 3: herbicidal effect by foliage application, Wagner pot (Table 18, symbol E); type: in vivo, rice flat sedge (Cyperus iria)
In short: as §3

southern crabgrass = assay: Test Example 4: herbicidal effect by soil treatment (Table 19, symbol F); type: in vivo, southern crabgrass (Digitaria ciliaris)
In short: as §2

barnyard grass [7] = assay: Test Example 5: herbicidal effect by foliage application, plastic box (Table 20, symbol H); type: in vivo, barnyard grass (Echinochloa crus-galli); details: foliage application, three weeks after application
In short: as §1

[8] = amount of applied herbicide 320 g/ha
[9] = amount of applied herbicide 310 g/ha

SMILES	O: lambsquarters, herbicidal effect grade (lambsquarters; 320 g/ha)	N: redroot pigweed, herbicidal effect grade (redroot pigweed; [8])	L: windgrass, herbicidal effect grade (windgrass [1]; [8])	L: windgrass, herbicidal effect grade (windgrass [2]; 320 g/ha)	herbicidal effect on barnyard grass (H) (barnyard grass [3]; 320 g/ha)	M: velvetleaf, herbicidal effect grade (velvetleaf; [8])	herbicidal effect on Chinese sprangletop (D) (Chinese sprangletop; 320 g/ha)	R: persian speedwell, herbicidal effect grade (persian speedwell; 320 g/ha)	H: barnyard grass, herbicidal effect grade (barnyard grass [4]; [8])	G: green foxtail, herbicidal effect grade (green foxtail [5]; 320 g/ha)	Herbicidal effect, C: oval-leafed pondweed (oval-leafed pondweed; [8])	Herbicidal effect, B: Japanese bulrush (Japanese bulrush; [8])	G: green foxtail, herbicidal effect grade (green foxtail [6]; [8])	I: wild oat, herbicidal effect grade (wild oat; 320 g/ha)	herbicidal effect on rice flat sedge (E) (rice flat sedge; 320 g/ha)	F: southern crabgrass, herbicidal effect grade (southern crabgrass; [8])	H: barnyard grass, herbicidal effect grade (barnyard grass [7]; 320 g/ha)	other results
CCCC(=O)Oc1c(C)nn(C)c(=O)c1-c1c(-c2ccc(OC)cc2)sc2cc(OC)ccc12 [3-069]	5 (Herbicidal rate of 90% or more (almost completely withered))	0 (Herbicidal rate of 5% or less (almost no effect))	0 (Herbicidal rate of 5% or less (almost no effect))	3 (Herbicidal rate of 40% or more and less than 70%)	0 (Herbicidal rate of 5% or less (almost no effect))	0 (Herbicidal rate of 5% or less (almost no effect))	0 (Herbicidal rate of 5% or less (almost no effect))	5 (Herbicidal rate of 90% or more (almost completely withered))	0 (Herbicidal rate of 5% or less (almost no effect))	0 (Herbicidal rate of 5% or less (almost no effect))	2 (Herbicidal rate of 20% or more and less than 40%)	3 (Herbicidal rate of 40% or more and less than 70%)	2 (Herbicidal rate of 20% or more and less than 40%)	0 (Herbicidal rate of 5% or less (almost no effect))	3 (Herbicidal rate of 40% or more and less than 70%)	0 (Herbicidal rate of 5% or less (almost no effect))	2 (Herbicidal rate of 20% or more and less than 40%)	
CCOc1ccc(-c2sc3cc(OC)ccc3c2-c2c(O)c(C)nn(C)c2=O)cc1 [3-072]	5 (Herbicidal rate of 90% or more (almost completely withered))	2 (Herbicidal rate of 20% or more and less than 40%)	0 (Herbicidal rate of 5% or less (almost no effect))	0 (Herbicidal rate of 5% or less (almost no effect))	4 (Herbicidal rate of 70% or more and less than 90%)	0 (Herbicidal rate of 5% or less (almost no effect))	3 (Herbicidal rate of 40% or more and less than 70%)	5 (Herbicidal rate of 90% or more (almost completely withered))	0 (Herbicidal rate of 5% or less (almost no effect))	3 (Herbicidal rate of 40% or more and less than 70%)	4 (Herbicidal rate of 70% or more and less than 90%)	5 (Herbicidal rate of 90% or more (almost completely withered))	0 (Herbicidal rate of 5% or less (almost no effect))	0 (Herbicidal rate of 5% or less (almost no effect))	4 (Herbicidal rate of 70% or more and less than 90%)	0 (Herbicidal rate of 5% or less (almost no effect))	3 (Herbicidal rate of 40% or more and less than 70%)	
COc1ccc2c(-c3c(O)c(C)nn(C)c3=O)c(-c3ccc(F)cc3OC)sc2c1 [3-076]	5 (Herbicidal rate of 90% or more (almost completely withered))	5 (Herbicidal rate of 90% or more (almost completely withered))	5 (Herbicidal rate of 90% or more (almost completely withered))	5 (Herbicidal rate of 90% or more (almost completely withered))	5 (Herbicidal rate of 90% or more (almost completely withered))	0 (Herbicidal rate of 5% or less (almost no effect))	3 (Herbicidal rate of 40% or more and less than 70%)	4 (Herbicidal rate of 70% or more and less than 90%)	3 (Herbicidal rate of 40% or more and less than 70%)	5 (Herbicidal rate of 90% or more (almost completely withered))	5 (Herbicidal rate of 90% or more (almost completely withered))	5 (Herbicidal rate of 90% or more (almost completely withered))	5 (Herbicidal rate of 90% or more (almost completely withered))	4 (Herbicidal rate of 70% or more and less than 90%)	5 (Herbicidal rate of 90% or more (almost completely withered))	0 (Herbicidal rate of 5% or less (almost no effect))	3 (Herbicidal rate of 40% or more and less than 70%)	
CCOc1ccccc1-c1sc2cc(OC)ccc2c1-c1c(O)c(C)nn(CC)c1=O [3-085]	3 (Herbicidal rate of 40% or more and less than 70%)	3 (Herbicidal rate of 40% or more and less than 70%)	0 (Herbicidal rate of 5% or less (almost no effect))	4 (Herbicidal rate of 70% or more and less than 90%)	5 (Herbicidal rate of 90% or more (almost completely withered))	0 (Herbicidal rate of 5% or less (almost no effect))	0 (Herbicidal rate of 5% or less (almost no effect))	5 (Herbicidal rate of 90% or more (almost completely withered))	3 (Herbicidal rate of 40% or more and less than 70%)	4 (Herbicidal rate of 70% or more and less than 90%)	4 (Herbicidal rate of 70% or more and less than 90%)	5 (Herbicidal rate of 90% or more (almost completely withered))	3 (Herbicidal rate of 40% or more and less than 70%)	4 (Herbicidal rate of 70% or more and less than 90%)	4 (Herbicidal rate of 70% or more and less than 90%)	4 (Herbicidal rate of 70% or more and less than 90%)	4 (Herbicidal rate of 70% or more and less than 90%)	
CCCC(=O)Oc1c(C)nn(C)c(=O)c1-c1c(-c2ccccc2OC)sc2cc(OCC)ccc12 [3-090]																		O: lambsquarters, herbicidal effect grade (lambsquarters; 310 g/ha): 5 (Herbicidal rate of 90% or more (almost completely withered)); N: redroot pigweed, herbicidal effect grade (redroot pigweed; [9]): 4 (Herbicidal rate of 70% or more and less than 90%); L: windgrass, herbicidal effect grade (windgrass [1]; [9]): 0 (Herbicidal rate of 5% or less (almost no effect)); L: windgrass, herbicidal effect grade (windgrass [2]; 310 g/ha): 5 (Herbicidal rate of 90% or more (almost completely withered)); herbicidal effect on barnyard grass (H) (barnyard grass [3]; 310 g/ha): 5 (Herbicidal rate of 90% or more (almost completely withered)); M: velvetleaf, herbicidal effect grade (velvetleaf; [9]): 3 (Herbicidal rate of 40% or more and less than 70%); herbicidal effect on Chinese sprangletop (D) (Chinese sprangletop; 310 g/ha): 5 (Herbicidal rate of 90% or more (almost completely withered)); R: persian speedwell, herbicidal effect grade (persian speedwell; 310 g/ha): 5 (Herbicidal rate of 90% or more (almost completely withered)); H: barnyard grass, herbicidal effect grade (barnyard grass [4]; [9]): 2 (Herbicidal rate of 20% or more and less than 40%); G: green foxtail, herbicidal effect grade (green foxtail [5]; 310 g/ha): 4 (Herbicidal rate of 70% or more and less than 90%); Herbicidal effect, C: oval-leafed pondweed (oval-leafed pondweed; [9]): 4 (Herbicidal rate of 70% or more and less than 90%); Herbicidal effect, B: Japanese bulrush (Japanese bulrush; [9]): 5 (Herbicidal rate of 90% or more (almost completely withered)); G: green foxtail, herbicidal effect grade (green foxtail [6]; [9]): 3 (Herbicidal rate of 40% or more and less than 70%); I: wild oat, herbicidal effect grade (wild oat; 310 g/ha): 4 (Herbicidal rate of 70% or more and less than 90%); herbicidal effect on rice flat sedge (E) (rice flat sedge; 310 g/ha): 5 (Herbicidal rate of 90% or more (almost completely withered)); F: southern crabgrass, herbicidal effect grade (southern crabgrass; [9]): 3 (Herbicidal rate of 40% or more and less than 70%); H: barnyard grass, herbicidal effect grade (barnyard grass [7]; 310 g/ha): 5 (Herbicidal rate of 90% or more (almost completely withered))
